Consider 2 compounds from US20220062291A1, “COMPOSITIONS AND METHODS OF TREATING CANCERS BY ADMINISTERING A PHENOTHIAZINE-RELATED DRUG THAT ACTIVATES PROTEIN PHOSPHATASE 2A (PP2A) WITH REDUCED INHIBITORY ACTIVITY TARGETED TO THE DOPAMINE D2 RECEPTOR AND ACCOMPANYING TOXICITY” (DANA-FARBER CANCER INSTITUTE, INC., priority 2018, published 2022).

Where only a bound is given, the exact number is not on record here.

In data set [1] the test system is p-ERK and p-AKT in KOPT-K1 cells. The data set is described as follows: Western blot of p-ERK and p-AKT. It counts as cell-based, human. The note with it: three hours. The source says: Levels of the PP2A endogenous substrates p-ERK and p-AKT in KOPT-K1 cells were examined because of the importance of the MAPK/ERK and PI3K/AKT/mTOR pathways in cancer cells.
For orientation: A western blot detects proteins with antibodies after separation by electrophoresis.

Data set [2] can be described thus: in vivo. Conditions: female, mouse, po.
Experimental: (§2) PPZ and iPAP1 were each given per orally to eight-week-old female C57BL/6 mice every 24 hours (n=3 for each cohort). The mice were monitored for four recognized types of dopamine receptor D2 mediated toxicity, namely: i) general activity; ii) reactivity to touch; iii) fear/startle to sound; and iv) tone of abdominal muscle. Behavioral monitoring was done at 15 minutes, 1 hour, 4 hours and 24 hours after each treatment. PPZ and iPAP1 were each administered at 0, 2.5, 5, 10, 20 and 40 mg/kg body weight/dose, and iPAP1 was also administered at 80 mg/kg body weight/dose.
For data set [3] the following is noted: female, C57BL/6, mouse, in vivo, po, 1 week.
Experimental: as §2
Data set [4] concerns PP2A subunits. The data set is described as follows: Co-immunoprecipitation of PP2A subunits (holoenzyme assembly). Conditions: KOPT-K1 cells, 10 μM, 24 hours. More on the design: species or system human. The source says: (§1) The biochemical activity of iPAP1 was further characterized by addressing whether it acts exclusively on the three identified subunits to mediate the assembly of PP2A, or whether other proteins expressed by T-ALL cells are also required. Using baculovirus vectors, each subunit of PP2A was first expressed with a C-terminal tag in Hi5 insect cells, and then purified the subunit proteins using columns with antibodies against the tags bound to agarose beads (see, Example 5, FIG. 13-FIG. 14). […] PP2A is a unique enzyme consisting of three subunits and it needs to be properly assembled into a holoenzyme before it mediates phosphatase activity. […] The protein lysates were then immunoprecipitated with anti-PPP2CA antibody or normal IgG as a control, and the precipitates were immunoblotted with antibodies specifically detecting each of the PP2A subunits. […] Nuclear and cytoplasmic fractions were separated using NE-PER™ Nuclear and Cytoplasmic Extraction Kit (Thermo Fisher Scientific), and each of the subunits of PP2A was analyzed by western blot. Histone H3 and α tubulin expression levels were used as loading controls for nuclear and cytoplasmic fractions, respectively. […] Lysates were immunoprecipitated using an anti-PPP2CA antibody, and then blotted with antibodies specific for each PP2A subunit. […] The results of a co-immunoprecipitation assay using an anti-PPP2CA antibody for immunoprecipitation in KOPT-K1 cells treated with SMAP at 10 μM or control DMSO for 24 hours before they were lysed for protein extraction are illustrated in FIG. 9B. Lysates were immunoprecipitated using an anti-PPP2CA antibody, and then blotted with antibodies specific for each PP2A subunit.

Data set [5] can be described thus: Peripheral blood platelet counts. Format: in vivo, C57BL/6J mice. The note with it: 80 mg/kg/day intraperitoneally, seven consecutive days. On the procedure:
The peripheral blood platelet counts in C57BL/6J mice treated with either by DMSO or iPAP1 at 80 mg/kg/day intraperitoneally for seven consecutive days, were measured. […] Other blood cell counts were unchanged in treated compared to control mice. iPAP1 treatment of mice increased the platelet count, due to effects of the compound on endoreduplication of megakaryocytes.

The test system of data set [6] is 274 cancer cell lines from 39 distinct types of human cancers. Briefly: PRISM analysis of cell viability. It counts as cell-based. The note with it: 5 μM, 5 days. On the procedure:
Many other human cell lines from hematologic malignancies and solid tumors were as sensitive as the most sensitive T-ALL cell lines to treatment with iPAP1. Cell lines with a relative viability below the dashed line at 0.5 have an IC50 value for iPAP1 below 5 μM.

Data set [7] addresses T1, PP2A subunits (Homo sapiens, UniProt P30153+P67775+Q16537).
T1 construct: are endogenously expressed by KOPTK1 cells; endogenous in cells; host or cells: KOPT-K1 T-ALL cells / lysates
Briefly: Co-immunoprecipitation of PP2A subunits (holoenzyme assembly). Conditions: purified subunits from insect cells.
Text: as §1

Data set [8] has as its system PLK1, PLK4, AURKA, KIF11, SASS6, RCC1, HAUS8, TPX2, PCNT, CENPJ and TUBG1 in KOPT-K1 cells. Briefly: Relative mRNA expression of spindle monopolarity genes. Format: cell-based, human. Conditions: 1 μM, 6 hours. On the procedure: The relative mRNA expression of genes whose inducible CRISPR-cas9 knockout causes cell cycle arrest in prometaphase yielding spindle monopolarity (PLK1, PLK4, AURKA, KIF11, SASS6, RCC1, HAUS8, TPX2, PCNT, CENPJ and TUBG1) (McKinley et al., Dev. Cell 40:405-420 (2017)) was evaluated in […] cell lines. […] The results are illustrated in FIG. 33.

T1 sequence (P30153 2-589): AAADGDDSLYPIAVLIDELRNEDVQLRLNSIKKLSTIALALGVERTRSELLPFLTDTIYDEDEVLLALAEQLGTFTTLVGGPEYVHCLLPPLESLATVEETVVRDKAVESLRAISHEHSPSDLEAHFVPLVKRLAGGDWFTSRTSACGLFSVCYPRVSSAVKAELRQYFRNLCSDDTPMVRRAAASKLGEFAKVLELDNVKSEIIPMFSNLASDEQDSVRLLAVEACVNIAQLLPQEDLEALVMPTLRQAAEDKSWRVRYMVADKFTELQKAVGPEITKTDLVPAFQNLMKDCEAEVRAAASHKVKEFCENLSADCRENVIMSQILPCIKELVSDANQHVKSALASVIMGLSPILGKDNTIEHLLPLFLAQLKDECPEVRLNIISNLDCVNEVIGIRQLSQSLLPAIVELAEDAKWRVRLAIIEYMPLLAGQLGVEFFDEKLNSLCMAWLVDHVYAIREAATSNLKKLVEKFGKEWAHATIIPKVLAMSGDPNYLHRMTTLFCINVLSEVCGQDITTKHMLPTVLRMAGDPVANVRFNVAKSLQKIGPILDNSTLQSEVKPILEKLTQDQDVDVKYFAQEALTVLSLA
T1 sequence (P67775 whole entry): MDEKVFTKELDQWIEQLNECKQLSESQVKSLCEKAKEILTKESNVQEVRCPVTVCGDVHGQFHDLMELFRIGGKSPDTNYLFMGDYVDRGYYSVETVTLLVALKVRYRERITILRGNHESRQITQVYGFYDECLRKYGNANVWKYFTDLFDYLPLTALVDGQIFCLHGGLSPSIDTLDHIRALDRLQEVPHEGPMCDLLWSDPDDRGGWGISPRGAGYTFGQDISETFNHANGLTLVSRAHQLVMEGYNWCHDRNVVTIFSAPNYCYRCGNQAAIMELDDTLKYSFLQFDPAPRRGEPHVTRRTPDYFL
T1 sequence (Q16537 2-467): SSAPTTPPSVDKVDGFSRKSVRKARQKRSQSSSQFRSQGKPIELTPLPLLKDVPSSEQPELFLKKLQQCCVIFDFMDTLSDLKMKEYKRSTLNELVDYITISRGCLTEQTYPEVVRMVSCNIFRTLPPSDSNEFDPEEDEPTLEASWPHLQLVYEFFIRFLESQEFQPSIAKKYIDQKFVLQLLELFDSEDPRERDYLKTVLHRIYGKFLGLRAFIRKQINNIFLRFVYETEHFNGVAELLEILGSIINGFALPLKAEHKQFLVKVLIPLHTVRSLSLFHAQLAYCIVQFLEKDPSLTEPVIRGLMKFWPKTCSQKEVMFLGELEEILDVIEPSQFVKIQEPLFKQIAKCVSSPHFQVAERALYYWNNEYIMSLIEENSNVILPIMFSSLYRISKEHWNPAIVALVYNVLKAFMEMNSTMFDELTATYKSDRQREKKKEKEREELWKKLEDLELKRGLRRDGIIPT

Take `OCCN1CCN(CCCN2c3ccccc3Sc3ccc(Cl)cc32)CC1` [PPZ, perphenazine, reference compound]: the “phosphorylation of ERK and AKT” value in data set [1] is given as “significantly reduced”. The compound further registered an MTD at 1 week in data set [2] of 2.5 mg/kg. For the same compound, in data set [3], the “dose showing neurological toxicity” value is recorded as at least 5 mg/kg body weight/dose. In addition, the “PP2A subunits co-immunoprecipitated with anti-PPP2CA antibody” value in data set [4] is “PPP2CA uniquely binds to PPP2R1A and PPP2R5E”.
For the compound `COc1ccc(C(=O)N2c3ccccc3Sc3ccc(Cl)cc32)cc1` [iPAP1], in data set [5], the “other blood cell counts” value is recorded as “unchanged” and the “peripheral blood platelet counts” value was “significantly increased the platelet counts”. Moreover, the “cell killing compared with PPZ in every cell line” value in data set [6] is “more active in cell killing than was PPZ”. In data set [7], the “assembly of purified PPP2R1A, PPP2CA and PPP2R5E” value is reported as “assembled into an active enzyme complex”. Further, in data set [8], the “relative mRNA expression” value was “significantly down-regulated the expression levels of most of these genes”.
